Data published in paper PMC10321576, “Cyclic peptides target the aromatic cage of a PHD-finger reader domain to modulate epigenetic protein function” (Chemical Science, 2023).
Read-outs that look alike come from different tables or passages of the source. Peptide text beside a SMILES is read from it.

What was measured:
ING2 PHD = molecular target: T1, ING2 PHD (Homo sapiens, UniProt Q9H160); assay: BLI binding; conditions: 1:1 binding model
T1 construct: ING2 PHD
Text: (§1) against KDM7 and other protein domains. t1/2 = half life (0.693 / Koff)
(§2) (1 picture or pasted object on this page, not shown here)

SPIN1 TTD = SPIN1 TTD (Homo sapiens, UniProt Q9Y657); assay: BLI binding; conditions: 1:1 binding model
SPIN1 TTD, sequence (Q9Y657 53-262 limits assumed): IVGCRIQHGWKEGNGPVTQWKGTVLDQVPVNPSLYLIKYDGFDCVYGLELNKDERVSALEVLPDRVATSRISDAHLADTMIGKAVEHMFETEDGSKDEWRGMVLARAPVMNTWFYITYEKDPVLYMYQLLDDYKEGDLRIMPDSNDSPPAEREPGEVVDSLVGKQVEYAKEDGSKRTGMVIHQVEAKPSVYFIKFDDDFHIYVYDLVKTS
Text: as §1, §2

TAF3 PHD = molecular target: T2, TAF3 PHD (Homo sapiens, UniProt Q5VWG9); assay: BLI binding; conditions: 1:1 binding model
T2 construct: TAF3 PHD
T2 sequence (Q5VWG9 865-915 limits assumed): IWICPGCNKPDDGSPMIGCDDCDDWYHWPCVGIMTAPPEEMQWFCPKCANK
Text: as §1, §2

DIDO PHD = molecular target: T3, DIDO PHD (Homo sapiens, UniProt Q9BTC0); assay: BLI binding; conditions: 1:1 binding model
T3 construct: DIDO PHD
T3 sequence (Q9BTC0 268-322 limits assumed): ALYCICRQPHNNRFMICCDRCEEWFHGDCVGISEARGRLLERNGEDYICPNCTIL
Text: as §1, §2

KDM2/3/4/5/6 = assay: KDM selectivity screening by MALDI-TOF-MS; format: biochemical; conditions: histone peptide substrates; incl. full-length KDM2A and KDM2B
Text: The panel included full-length recombinant KDM2A and KDM2B which have the closest JmjC-domains to KDM7s, but with unrelated PHD-fingers (Fig. S43 and S44 ^†).

[1] = tested on: SUP-T1 nuclear lysate proteins; assay: Pull-down and proteomics from SUP-T1 nuclear lysate; format: binding; conditions: 1 μM OC9-Bt, 454 proteins identified
Protocol: Fig. 6 Selective capture of full-length KDM7 with OC9-Bt in nuclear lysates. (a) OC9-Bt, H3K4me3-Bt and Bt were used as affinity probes in HEK293T nuclear lysates, transiently transfected with wild type KDM7B, or PHD-finger mutant (Y14A, W29A). Capture was performed with 1 μM probe incubated in pre-cleared lysate, recovered with streptavidin-conjugated magnetic beads, then washed and eluted by heating in denaturing solution. 100-fold excess OC9 or OC9 V10A were used as competitors. […] (Left) Change in all protein (454) recoveries with competition by titration of unlabelled OC9. (Right) Volcano plot comparing relative abundance of pull-down content at 0 and 20 μM competition. The upper left quadrant indicates >5-fold difference in recovered protein (based on T-test difference of mean log 2 (LFQ) values) and p-value threshold <0.05.
A further chemoproteomic profiling analysis of endogenous protein capture by OC9-Bt from KDM7B-expressing T-cell lymphoblastic lymphoma SUP-T1 nuclear lysates[67] identified 454 proteins.

KDM7B PHD [2] = molecular target: T4, KDM7B PHD (Homo sapiens, UniProt Q9UPP1); assay: BLI binding; design: key to BLI Screening, KDM7B PHD: (+) = binding; (-) = no binding; (NS) = non-specific
T4 construct: KDM7B 1-66; made in house
T4 sequence (Q9UPP1 1-66 isoform Q9UPP1-2): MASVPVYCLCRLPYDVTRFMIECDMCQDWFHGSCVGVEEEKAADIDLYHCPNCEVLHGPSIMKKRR
Text: Figure S2. BLI for KDM7 proteins with cyclic peptides.
BLI traces for b inding to KDM7 protein domains immobilised by C-terminal His -tag on Ni -NTA
biosensors, against cyclic peptides. Response trace for each peptide concentration is represented by
a different colour, with the fitted curves overlaid in black.
concentration plotted, with 2-fold dilutions thereafter. Dual domain = PHD+JmjC. […]
as §1, §2

KDM7A PHD = molecular target: T5, KDM7A PHD (Homo sapiens, UniProt Q6ZMT4); assay: ITC binding
T5 construct: KDM7A 38-98; made in house
T5 sequence (Q6ZMT4 38-98): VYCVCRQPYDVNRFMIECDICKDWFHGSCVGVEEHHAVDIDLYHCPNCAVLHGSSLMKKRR
Protocol: (§3) Figure S10. ITC results: Tabulated values from 1:1 binding model and conditions
(§4) ITC buffer = 50 mM HEPES, 100 mM NaCl, pH 7.4, 0.2 µm filtered), at 25 °C. Dual = PHD+JmjC. HisTrx
(§5) = His 6+thioredoxin tag, GST = glutathione S -transferase tag, ZB = Z -basic tag. Syringe contained
(§6) peptide solution in buffer. Cell contained protein solution in buffer.
as §2

KDM7C Dual - ZB = KDM7C Dual - ZB (Homo sapiens, UniProt O75151); assay: ITC binding
KDM7C Dual - ZB, sequence (O75151 1-353 limits assumed): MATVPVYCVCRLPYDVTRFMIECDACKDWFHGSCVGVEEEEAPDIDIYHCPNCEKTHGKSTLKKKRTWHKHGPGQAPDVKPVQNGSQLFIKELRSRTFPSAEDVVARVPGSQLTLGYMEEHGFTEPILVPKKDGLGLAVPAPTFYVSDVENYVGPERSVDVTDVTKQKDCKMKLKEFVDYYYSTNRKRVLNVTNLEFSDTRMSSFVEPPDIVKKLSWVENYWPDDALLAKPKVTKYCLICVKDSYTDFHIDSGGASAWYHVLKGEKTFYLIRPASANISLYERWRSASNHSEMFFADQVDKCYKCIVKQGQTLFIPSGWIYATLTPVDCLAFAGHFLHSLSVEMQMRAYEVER
Protocol: as §3, §4, §5, §6, §2

KDM7A Dual = KDM7A Dual (Homo sapiens, UniProt Q6ZMT4); assay: ITC binding
KDM7A Dual, sequence (Q6ZMT4 38-386 limits assumed): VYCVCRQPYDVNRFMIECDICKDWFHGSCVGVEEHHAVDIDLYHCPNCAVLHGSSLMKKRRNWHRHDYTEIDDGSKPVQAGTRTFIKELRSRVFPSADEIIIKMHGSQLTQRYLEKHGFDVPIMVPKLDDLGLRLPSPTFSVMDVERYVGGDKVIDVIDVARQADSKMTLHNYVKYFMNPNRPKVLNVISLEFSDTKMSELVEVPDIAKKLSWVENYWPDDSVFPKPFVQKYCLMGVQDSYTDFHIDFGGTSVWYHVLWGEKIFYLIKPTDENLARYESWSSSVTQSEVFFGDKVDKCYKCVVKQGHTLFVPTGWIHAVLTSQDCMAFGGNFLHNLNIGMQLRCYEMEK
Protocol: as §3, §4, §5, §6, §2

KDM7B PHD [3] = molecular target: T4, KDM7B PHD; assay: ITC binding
Protocol: as §3, §4, §5, §6, §2

KDM7B PHD-finger = molecular target: T6, KDM7B PHD-finger (Homo sapiens, UniProt Q9UPP1); assay: HDX-MS; format: binding; conditions: 60 minute time-course, relative to DMSO
T6 construct: KDM7B 1-66; His-tag (C); made in house
T6 sequence (Q9UPP1 1-66 isoform Q9UPP1-2): T4 sequence (Q9UPP1 1-66 isoform Q9UPP1-2)
Text: (§7) To further evaluate the interactions of OC9 with KDM7B we used hydrogen–deuterium exchange mass spectrometry (HDX-MS), which informs on protein dynamics by following deuterium incorporation into the protein amide backbone (Fig. 2).
(§8) The residue level view was generated by averaging mass changes across overlapping peptide fragments. Supporting data available in ESI. ^† K4me3 binding aromatic cage residues (‘YYMW’ Fig. 1a) are indicated by red asterix.

KDM7B dual domain = molecular target: T7, KDM7B dual domain (Homo sapiens, UniProt Q9UPP1); assay: HDX-MS; format: binding; conditions: relative to DMSO
T7 construct: dual domain (PHD-JmjC) of KDM7B; His-tag (C); made in house
T7 sequence (Q9UPP1 37-483 limits assumed): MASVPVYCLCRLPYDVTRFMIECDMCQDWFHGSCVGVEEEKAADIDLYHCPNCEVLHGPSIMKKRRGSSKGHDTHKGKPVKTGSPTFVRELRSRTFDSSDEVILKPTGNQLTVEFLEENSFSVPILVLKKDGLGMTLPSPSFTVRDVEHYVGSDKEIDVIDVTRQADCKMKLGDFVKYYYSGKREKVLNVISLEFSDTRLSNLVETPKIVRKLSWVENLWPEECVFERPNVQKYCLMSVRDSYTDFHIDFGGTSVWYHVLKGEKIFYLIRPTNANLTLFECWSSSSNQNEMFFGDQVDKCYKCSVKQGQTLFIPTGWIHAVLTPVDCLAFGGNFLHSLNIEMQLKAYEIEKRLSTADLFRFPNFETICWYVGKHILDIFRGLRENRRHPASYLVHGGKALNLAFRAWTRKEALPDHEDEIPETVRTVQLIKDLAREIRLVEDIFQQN
Text: as §7, §8

HisTrx-KDM7B PHD = molecular target: T8, HisTrx-KDM7B PHD (Homo sapiens, UniProt Q9UPP1); assay: ITC binding
T8 construct: KDM7B 1-66; made in house
T8 sequence (Q9UPP1 1-66 isoform Q9UPP1-2): T4 sequence (Q9UPP1 1-66 isoform Q9UPP1-2)
Protocol: Figure S8. ITC titration curves for His-Trx-KDM7B PHD.
Top panels are raw heat of injection, bottom panels are normalised data fitted to 1:1 binding model.
His-Trx = His6+thioredoxin. For […]
results of fit and conditions see Figure S10. […]
Figure S10. ITC results: Tabulated values from 1:1 binding model and conditions ITC buffer = 50 mM HEPES, 100 mM NaCl, pH 7.4, 0.2 µm filtered), at 25 °C. Dual = PHD+JmjC. HisTrx = His 6+thioredoxin tag, GST = glutathione S -transferase tag, ZB = Z -basic tag. Syringe contained peptide solution in buffer. Cell contained protein solution in buffer.
as §2

[4] = 50 mM HEPES, 100 mM NaCl, pH 7.4, 25 °C, 1:1 binding model

T1 sequence (Q9H160 212-261 limits assumed): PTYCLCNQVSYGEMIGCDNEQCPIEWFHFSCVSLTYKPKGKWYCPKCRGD

CC(C)C[C@@H]1NC(=O)[C@H](Cc2ccc(O)cc2)NC(=O)[C@H](Cc2ccc(O)cc2)NC(=O)CSC[C@@H](C(N)=O)NC(=O)[C@H]([C@@H](C)O)NC(=O)[C@H](CCCNC(=N)N)NC(=O)[C@H](Cc2ccccc2)NC(=O)[C@H](C(C)C)NC(=O)[C@H](CO)NC(=O)[C@@H]2CCCN2C(=O)[C@H](Cc2ccc(O)cc2)NC(=O)[C@@H]2CCCN2C(=O)[C@H](Cc2c[nH]cn2)NC(=O)[C@H]([C@@H](C)O)NC1=O [OC9] (HELM PEPTIDE1{[O=C(C[*:3])[*:2]].Y.Y.L.T.H.P.Y.P.S.V.F.R.T.C.[am]}$PEPTIDE1,PEPTIDE1,1:R3-15:R3$$$V2.0)
Kd (ING2 PHD): > 1 µM
Kd (SPIN1 TTD): > 1 µM
Kd (TAF3 PHD): > 1 µM
BLI KD, DIDO PHD (DIDO PHD): no measurable affinity
Kd (DIDO PHD): > 1 µM
inhibition of other isolated KDM sub-families (KDM2/3/4/5/6) (KDM2/3/4/5/6): no significant inhibition
proteins competed from OC9-Bt pull-down by titration of unlabelled OC9 [1]: Only the relative abundance of KDM7B and KDM7C were significantly affected
koff (KDM7B PHD [2]; 1:1 binding model): 0.00143 ± 1e-05 s⁻¹
kon (KDM7B PHD [2]; 1:1 binding model): 360000 ± 2000 M⁻¹ s⁻¹
Kd (KDM7B PHD [2]; His-tagged protein on Ni-NTA biosensors, 1:1 binding model, read-out: BLI KD, KDM7B PHD): 0.00396 µM
BLI Screening, KDM7B PHD (KDM7B PHD [2]; qualitative assessment of binding by BLI): +
Kd (KDM7A PHD; [4]): 0.0334 µM
ITC ΔH, KDM7A PHD (KDM7A PHD; 25 °C): -46.0 ± 1.3 kJ mol -1
ITC N, KDM7A PHD (KDM7A PHD; stoichiometry): 0.71 ± 0.01
ITC ΔH, KDM7C Dual - ZB (KDM7C Dual - ZB; 25 °C): -65.7 ± 3.1 kJ mol -1
Kd (KDM7C Dual - ZB; read-out: ITC pKD, KDM7C Dual - ZB (converted)): 0.01 µM
ITC N, KDM7C Dual - ZB (KDM7C Dual - ZB; stoichiometry): 1.19 ± 0.01
Kd (KDM7A Dual; [4]): 0.0343 µM
ITC ΔH, KDM7A Dual (KDM7A Dual; 25 °C): -56.9 ± 4.3 kJ mol -1
ITC N, KDM7A Dual (KDM7A Dual; stoichiometry): 0.92 ± 0.03
Kd (KDM7B PHD [3]; [4]): 0.0117 µM
ITC ΔH, KDM7B PHD (KDM7B PHD [3]; 25 °C): -46.2 ± 1.2 kJ mol -1
ITC N, KDM7B PHD (KDM7B PHD [3]; stoichiometry): 0.99 ± 0.01
affinity of OC9 against the KDM7 PHD-fingers greater than the natural histone peptide ligand (KDM7B PHD [3]; vs H3_1–21K4me3): at least 10 fold
HDX-MS effect on deuterium uptake, KDM7B PHD-finger (KDM7B PHD-finger): affected an even greater proportion
HDX-MS effect on deuterium uptake, KDM7B dual domain (KDM7B dual domain): only reduced deuterium uptake in peptide fragments within the PHD-finger
Kd (HisTrx-KDM7B PHD; 50 mM HEPES, 100 mM NaCl, pH 7.4, 25 °C, 1:1 binding model, His6+thioredoxin tag, read-out: ITC KD, HisTrx-KDM7B PHD): 0.00827 µM
ITC ΔH, HisTrx-KDM7B PHD (HisTrx-KDM7B PHD; 25 °C): -60.0 ± 1.3 kJ mol -1
Kd (HisTrx-KDM7B PHD; read-out: ITC pKD, HisTrx-KDM7B PHD (converted)): 0.00794 µM
ITC N, HisTrx-KDM7B PHD (HisTrx-KDM7B PHD; stoichiometry): 0.86 ± 0.01
